Results: PubChem BioAssay AID194 (DTP/NCI, 2004)
Values joined by “and” are separate entries in the source; they are usually repeats but may differ in a detail not shown here. Identical values can stand only once. Inconclusive results are not listed. How the source made its calls: active means survival T/C of 150% or more; inactive means T/C below 125% in these data.

System: BDF1 mice, B16 melanoma s.c., survival/tumor T/C
Assay: NCI In Vivo Anticancer Drug Screen. Data for tumor model B16 Melanoma (subcutaneous) in B6D2F1 (BDF1) mice
Details: endpoint: median survival time, higher = longer survival
Method: The antitumor activity of compounds was measured in mice bearing transplantable tumors. Survival or tumor size were measured and the results are expressed as the measurement made in the treated group (T) divided by the measurement made in the vehicle treated control group (C). The tumor model used in this assay is B16 Melanoma (subcutaneous) in B6D2F1 (BDF1) mice

Measured: T/C

Cc1[nH]nc(-c2ccon2)c1N=O
inactive: dose: 12.5 mg/kg/injection, schedule: Q01DX009 (ip), vehicle: saline with Tween-80 91 % of control | dose: 25.0 mg/kg/injection, schedule: Q01DX009 (ip), vehicle: saline with Tween-80 96 % of control | dose: 50.0 mg/kg/injection, schedule: Q01DX009 (ip), vehicle: saline with Tween-80 100 % of control | dose: 100.0 mg/kg/injection, schedule: Q01DX009 (ip), vehicle: saline with Tween-80 87 % of control

COC(=O)C(N)CCCCNc1ccc2c(cc1=O)C(NC(C)=O)CCc1cc(OC)c(OC)c(OC)c1-2 (stereo not drawn)
inactive: dose: 53.0 mg/kg/injection, schedule: Q01DX009 (ip), vehicle: saline 118 % of control | dose: 80.0 mg/kg/injection, schedule: Q01DX009 (ip), vehicle: saline 90 % of control | dose: 120.0 mg/kg/injection, schedule: Q01DX009 (ip), vehicle: saline 106 % of control | dose: 180.0 mg/kg/injection, schedule: Q01DX009 (ip), vehicle: saline 90 % of control

COC(=O)Nc1cccc(-c2nc3ccc(NC(=O)OC)cc3c(=O)n2-c2ccccc2)c1
inactive: dose: 50.0 mg/kg/injection, schedule: Q04DX005 (ip), vehicle: other 99 % of control | dose: 100.0 mg/kg/injection, schedule: Q04DX005 (ip), vehicle: other 115 % of control | dose: 100.0 mg/kg/injection, schedule: Q04DX005 (oral), vehicle: other 102 % of control | dose: 200.0 mg/kg/injection, schedule: Q04DX005 (oral), vehicle: other 94 % of control

CNNCc1ccc(C(=O)NC(C)C)cc1
inactive: dose: 40.0 mg/kg/injection, schedule: Q01DX009 (ip), vehicle: Klucel (hydroxypropylcellulose) (HPC) 102 % of control | dose: 80.0 mg/kg/injection, schedule: Q01DX009 (ip), vehicle: Klucel (hydroxypropylcellulose) (HPC) 113 % of control | dose: 160.0 mg/kg/injection, schedule: Q01DX009 (ip), vehicle: Klucel (hydroxypropylcellulose) (HPC) 102 % of control and 115 % of control | dose: 320.0 mg/kg/injection, schedule: Q01DX009 (ip), vehicle: Klucel (hydroxypropylcellulose) (HPC) 95 % of control

C=C(C)C12OC3(c4ccccc4)OC1C1C4OC4(CO)C(O)C4(O)C(=O)C(C)=CC4C1(O3)C(C)C2OC(=O)/C=C/C=C/c1ccccc1 (stereo not drawn)
inactive: dose: 6.3 micrograms/kg/injection, schedule: Q01DX009 (ip), vehicle: saline with Tween-80 115 % of control | dose: 12.5 micrograms/kg/injection, schedule: Q01DX009 (ip), vehicle: saline with Tween-80 99 % of control | dose: 25.0 micrograms/kg/injection, schedule: Q01DX009 (ip), vehicle: saline with Tween-80 115 % of control | dose: 50.0 micrograms/kg/injection, schedule: Q01DX009 (ip), vehicle: saline with Tween-80 103 % of control | dose: 100.0 micrograms/kg/injection, schedule: Q01DX009 (ip), vehicle: saline with Tween-80 98 % of control

O=NN(CCF)C(=O)N[C@H]1CCCC[C@H]1O
inactive: dose: 5.18 mg/kg/injection, schedule: Q01DX007 (ip), vehicle: water 68 % of control | dose: 8.64 mg/kg/injection, schedule: Q01DX007 (ip), vehicle: water 105 % of control | dose: 14.4 mg/kg/injection, schedule: Q01DX007 (ip), vehicle: water 121 % of control

O=c1cnn(C2OC(CO)C(O)C2O)c(=O)[nH]1 (stereo not drawn)
inactive: dose: 75.0 mg/kg/injection, schedule: Q01DX009 (ip), vehicle: saline 117 % of control | dose: 150.0 mg/kg/injection, schedule: Q01DX009 (ip), vehicle: saline 104 % of control | dose: 300.0 mg/kg/injection, schedule: Q01DX009 (ip), vehicle: saline 90 % of control | dose: 600.0 mg/kg/injection, schedule: Q01DX009 (ip), vehicle: saline 101 % of control

Nc1nncs1
inactive: dose: 59.0 mg/kg/injection, schedule: Q01DX009 (ip), vehicle: saline with Tween-80 108 % of control | dose: 1200.0 mg/kg/injection, schedule: Q04DX003 (ip), vehicle: saline with Tween-80 121 % of control | dose: 1800.0 mg/kg/injection, schedule: Q04DX003 (ip), vehicle: saline with Tween-80 104 % of control | dose: 2000.0 mg/kg/injection, schedule: Q01DX001 (ip), vehicle: saline with Tween-80 108 % of control | dose: 3000.0 mg/kg/injection, schedule: Q01DX001 (ip), vehicle: saline with Tween-80 113 % of control
